Assays:
Assay type in all cases: cell-based
[1] = tested on: A549 cells; test: Expression of inflammatory cytokines (SASP) by RT-qPCR; conditions: 5 days after treatment
Experimental: The expression of inflammation-related genes such as inflammatory cytokine genes is increased in senescent cells. It is known that a phenomenon called SASP (senescence-associated secretory phenotype) is thereby induced. In order to study whether this phenomenon was induced in the A549 cells, the cells were recovered 5 days after CCC021-TPP treatment in the same manner as in Example 1, and RNA extraction, RNA reverse-transcription, cDNA synthesis, and RT-qPCR were performed in the same manner as in Example 1 to examine the expression of inflammatory cytokines (IL-1A, IL-1B, IL-6, and IL-8) in the A549 cells and the PC14 cells. The primers used for the amplification of each gene are shown below. For qPCR, amplification was performed under conditions involving a holding stage of 50° C. for 2 min→95° C. for 10 min followed by 40 cycles of a cycling stage each involving 95° C. for 15 sec→60° C. for 1 min using Applied Biosystems(R) 7500 real-time PCR system, and melt curve analysis after amplification was conducted at a melt curve stage of 95° C. for 15 sec→60° C. for 1 min→95° C. for 15 sec→60° C. for 15 sec to confirm reaction specificity from the absence of primer dimer by-products or the like in PCR products.

[2] = tested on: A549 cells; test: Expression of apoptosis-related factors by RT-qPCR; conditions: 5 days after treatment
Experimental: Accordingly, as for the maintenance of senescent cells by the circumvention of apoptosis as well as change in the expression of anti-apoptotic factors BCL-XL, BCL2, and survivin and an pro-apoptotic factor BAX by CCC021-TPP treatment, the cells were recovered 5 days after CCC021-TPP treatment as described above, and RNA extraction, RNA reverse-transcription, cDNA synthesis, and RT-qPCR were performed in the same manner as in Example 1 to examine the expression of apoptosis-related factors (BCL-XL, BCL2, survivin, and BAX) in the A549 cells and the PC14 cells. The primers used for the amplification of each gene are shown below. For qPCR, amplification was performed under conditions involving a holding stage of 50° C. for 2 min→95° C. for 10 min followed by 40 cycles of a cycling stage each involving 95° C. for 15 sec→60° C. for 1 min using Applied Biosystems(R) 7500 real-time PCR system, and melt curve analysis after amplification was conducted at a melt curve stage of 95° C. for 15 sec→60° C. for 1 min→95° C. for 15 sec→60° C. for 15 sec to confirm reaction specificity from the absence of primer dimer by-products or the like in PCR products.

[3] = tested on: A549 cells; test: Long-term cell proliferation, cell numbers counted for 8 days; conditions: 20 μM
Experimental: (§1) The suppression of cell proliferation was further observed in the A549 and PC14 cells mentioned above for a long period. The observation was performed for 8 days under the culture conditions described above (both the mtDNA mutation cell line A549 and the PC14 cell line having no mutation were inoculated at 1×10^3 cells/well, cultured for 24 hours, and then treated with CCC021-TPP (final concentration: 20 μM)), and cell numbers were counted.

[4] = tested on: PC14 cells; test: as above; conditions: 20 μM
Experimental: as §1

[5] = tested on: A549 cells; test: Trypan blue assay of live cell numbers; conditions: A549, 7 days later
Experimental: (§2) The A549 cells and the PC14 cells were inoculated at 5×10^3 cells/dish and 1×10^4 cells/dish, respectively, to 35 mm glass base dishes (IWAKI, Japan), cultured for 24 hours, and then treated with CCC021-TPP (final concentration: 20 μM). Further, 24 hours later, the culture solution was discarded, and a DMEM culture solution containing Mito Tracker(R) Red CMXRos (Life Technologies, USA) was added to attain 100 nM. 30 minutes later, the cells were washed twice with PBS, then fixed in 4% PFA for 30 minutes, then medium-replaced with PBS, preserved at 4° C., immunostained with the antibody by the method described in Example 1, and observed under confocal laser microscope SP8 (Leica, Germany). […] A549 and PC14 were each inoculated at 5×10^2 cells/well to 16 wells of a 96-well plate, cultured for 24 hours, and then treated with CCC021-TPP at 0, 1, 2, 5, 10, 25, and 50 μM each for 2 wells. 5 days later, the cells were reacted at room temperature for 2 hours using CytoSelect™ MTT Cell Proliferation Assay (Cosmo Bio Co., Ltd.), followed by the measurement of absorbance at 590 nm with SPECTRAFLUOR Plus (Tecan Group Ltd.) to conduct a rechallenge experiment of cell proliferation. […] 7 days later, as for change in the live cell numbers of the A549 cells and the PC14 cells, the live cell numbers were measured by trypan blue staining to experimentally examine cell survival rates.

[6] = tested on: PC14 cells; test: Trypan blue assay of live cell numbers; conditions: PC14, 7 days later
Experimental: as §2

[7] = tested on: A549 cells; test: WST assay of cell proliferation (CCC021-TPP); conditions: Homo sapiens, 96 h; A549, 4 days
Experimental: (§3) The proliferation suppressive effect of CCC021-TPP on cells having the A14582G mtDNA mutation was evaluated by WST assay. Both the mitochondrial DNA mutated cell line A549 and a PC14 cell line having no mutation were inoculated at 1×10^3 cells/well to 96-well plates (Thermo Fisher Scientific), cultured for 24 hours, and then treated with CCC021-TPP (final concentration: 0, 1, 5, 10, 20, 25, 50, and 100 μM). The cells were further cultured for 4 days and then morphologically observed under optical microscope IX71 (OLYMPUS, Tokyo, Japan). Then, cell survival rates were calculated using Cell counting kit-8 (DOJINDO, Kumamoto, Japan) according to the instruction manual. DMSO (FUJIFILM Wako Pure Chemical Corp.) (final concentration: 1%) was added as a control to cells.
(§4) IC50 was calculated according to the following expression:
(§5) IC50=10(LOG(A/B)×(50−C)/(D−C)+LOG(B))

[8] = tested on: PC14 cells; test: WST assay of cell proliferation (CCC021-TPP); conditions: PC14, 4 days
Experimental: as §3, §4, §5

SMILES: CN(C)CCCNC(=O)CCNC(=O)c1cc(NC(=O)c2cc(NC(=O)CCNC(=O)c3nc(NC(=O)c4cc(NC(=O)c5cc(NC(=O)CCNC(=O)CCCC[P+](c6ccccc6)(c6ccccc6)c6ccccc6)cn5C)cn4C)cn3C)cn2C)cn1C [CCC021-TPP]
- expression of IL-1A [1]: significantly increased expression
- expression of IL-6 [1]: tendency to increase the expression
- expression of IL-8 [1]: significantly increased expression
- expression of anti-apoptotic factor BCL-XL [2]: increased
- expression of pro-apoptotic factor BAX [2]: increased expression
- expression of survivin [2]: decreased expression
- cell number / proliferation [3]: significant suppression of proliferation
- cell number / proliferation [4]: neither significant difference in cell number nor a cell proliferation suppressive effect was found
- viability (trypan blue) [5]: no influence on the viability
- viability (trypan blue) [6]: no influence on the viability
- IC50 [7]: 78.9 µM
- IC50 (WST assay) [8]: incalculable
